Test results: the NIST ThermoML archive (doi:10.1016/j.jct.2016.09.027)

Assay: mn = molality of the nth substance listed, in mol/kg
Conditions: 100 kPa, Liquid; for speed of sound: Frequency=3 MHz, Sing-around technique in a fixed-path interferometer; for mass density: Vibrating tube method

C[C@H]1COc2c(N3CCN(C)CC3)c(F)cc3c(=O)c(C(=O)O)cn1c23 [levofloxacin] + O
Conditions	mass density, 288.15 K [kg/m3]	mass density, 293.15 K [kg/m3]	mass density, 298.15 K [kg/m3]	mass density, 303.15 K [kg/m3]	mass density, 308.15 K [kg/m3]	speed of sound, 288.15 K [m/s]	speed of sound, 293.15 K [m/s]	speed of sound, 298.15 K [m/s]	speed of sound, 303.15 K [m/s]	speed of sound, 308.15 K [m/s]
m1 = 0.005	1001.5	1000.61	999.444	998.037	996.415	1467.4	1483.2	1497.3	1509.7	1520.3
m1 = 0.01	1002.04	1001.14	999.956	998.556	996.926	1468.3	1484	1498.1	1510.4	1521
m1 = 0.03	1004.52	1003.59	1002.39	1000.96	999.305	1471.4	1487.2	1500.9	1513	1523.4
